Test results taken from publication PMC9090415, “Discovery of small molecule inhibitors of Plasmodium falciparum apicoplast DNA polymerase” (Journal of Enzyme Inhibition and Medicinal Chemistry, 2022).

Target: P. falciparum apicoplast DNA polymerase (Pf-apPOL) (Plasmodium falciparum, UniProt Q8ILY1)
Experiment: Fluorescence-based high-throughput DNA polymerase assay (molecular beacon), primary screen and dose-response
Assay type: biochemical
How it was run: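 Single-point screening used 10 µM compound with 20 nM polymerase, 20 nM hairpin substrate and 6 µM dNTPs for 90 min at 25 °C. Confirmatory titrations (2.5–80 µM) followed fluorescence at three times, and IC50 was derived from a fit including a cooperativity term n.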

[1] = primary screen value of the 186 hits; unit not given; 90 min, 10 µM
[2] = DRC-2, 40', concentration 10 (unit not given)
[3] = DRC-2, 90', concentration 10 (unit not given)
[4] = DRC-2, 180', concentration 20 (unit not given)

P. falciparum apicoplast DNA polymerase (Pf-apPOL), sequence (Q8ILY1 entry or part of it): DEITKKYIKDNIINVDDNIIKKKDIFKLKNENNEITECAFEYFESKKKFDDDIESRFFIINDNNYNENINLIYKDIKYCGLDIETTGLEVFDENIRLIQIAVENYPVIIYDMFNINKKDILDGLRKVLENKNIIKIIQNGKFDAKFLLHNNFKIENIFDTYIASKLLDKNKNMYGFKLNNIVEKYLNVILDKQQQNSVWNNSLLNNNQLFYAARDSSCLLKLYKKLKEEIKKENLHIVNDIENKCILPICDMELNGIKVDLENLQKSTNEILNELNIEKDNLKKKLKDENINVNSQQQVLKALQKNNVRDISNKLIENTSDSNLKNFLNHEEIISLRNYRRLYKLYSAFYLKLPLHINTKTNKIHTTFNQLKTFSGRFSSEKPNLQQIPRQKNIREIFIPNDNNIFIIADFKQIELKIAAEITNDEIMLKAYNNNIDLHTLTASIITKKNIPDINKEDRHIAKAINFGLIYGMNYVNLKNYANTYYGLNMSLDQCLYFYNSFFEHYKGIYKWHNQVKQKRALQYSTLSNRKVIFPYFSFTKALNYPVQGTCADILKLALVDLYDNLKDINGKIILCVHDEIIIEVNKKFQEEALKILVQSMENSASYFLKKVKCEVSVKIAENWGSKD

CCOc1ccc2cc(C3=NN(C(=O)CCC(=O)O)C(c4ccc(C)cc4)C3)c(=O)[nH]c2c1 (stereo not shown) [KU0056200]
% inhibition Apo pol 10' (DRC-1; concentration 2.5; 10'): 1.583% | % inhibition Apol 90' (DRC-1; concentration 2.5; 90'): -4.0405% | % inhibition apPOL 180' (DRC-1; concentration 2.5; 180'): -8.679% | % inhibition Apo pol 10' (DRC-1; concentration 5; 10'): 6.049% | % inhibition Apol 90' (DRC-1; concentration 5; 90'): 0.1368% | % inhibition apPOL 180' (DRC-1; concentration 5; 180'): -5.456% | % inhibition Apo pol 10' (DRC-1; concentration 10; 10'): 12.8328% | % inhibition Apol 90' (DRC-1; concentration 10; 90'): 2.997% | % inhibition apPOL 180' (DRC-1; concentration 10; 180'): -3.315% | % inhibition Apo pol 10' (DRC-1; concentration 20; 10'): 32.0591% | % inhibition Apol 90' (DRC-1; concentration 20; 90'): 18.8847% | % inhibition apPOL 180' (DRC-1; concentration 20; 180'): 8.488% | % inhibition Apo pol 10' (DRC-1; concentration 40; 10'): 80.8761% | % inhibition Apol 90' (DRC-1; concentration 40; 90'): 73.3726% | % inhibition apPOL 180' (DRC-1; concentration 40; 180'): 64.1358% | % inhibition Apo pol 10' (DRC-1; concentration 80 (unit not given); 10'): 88.576% | % inhibition Apol 90' (DRC-1; concentration 80; 90'): 90.0975% | % inhibition apPOL 180' (DRC-1; concentration 80; 180'): 90.0477% | % inhibition Apo pol 5' (DRC-2; 5'; concentration 10): 23% | % inhibition ApPOL 90' (DRC-2; 90'; concentration 10): 23% | % inhibition ApPOL 90' (DRC-2; 90'; concentration 40): 73% | % inhibition apPOL 180' (DRC-2; 180'; concentration 40): 73% | % inhibition Apo pol 5' (DRC-2; concentration 2.5; 5'): 2.23% | % inhibition Apol 40' (DRC-2; concentration 2.5; 40'): 0.754% | % inhibition ApPOL 90' (DRC-2; concentration 2.5; 90'): -0.536% | % inhibition apPOL 180' (DRC-2; concentration 2.5; 180'): -0.06% | % inhibition Apo pol 5' (DRC-2; concentration 5; 5'): 4.72% | % inhibition Apol 40' (DRC-2; concentration 5; 40'): 6% | % inhibition ApPOL 90' (DRC-2; concentration 5; 90'): 4.71% | % inhibition apPOL 180' (DRC-2; concentration 5; 180'): 1.23% | % inhibition Apo pol 5' (DRC-2; concentration 10; 5'): 23% | % inhibition Apol 40' (DRC-2; concentration 10; 40'): 25% | % inhibition ApPOL 90' (DRC-2; concentration 10; 90'): 23% | % inhibition apPOL 180' (DRC-2; concentration 10; 180'): 16% | % inhibition Apo pol 5' (DRC-2; concentration 20; 5'): 42% | % inhibition Apol 40' (DRC-2; concentration 20; 40'): 49% | % inhibition ApPOL 90' (DRC-2; concentration 20; 90'): 47% | % inhibition apPOL 180' (DRC-2; concentration 20; 180'): 39% | % inhibition Apo pol 5' (DRC-2; concentration 40; 5'): 54% | % inhibition Apol 40' (DRC-2; concentration 40; 40'): 70% | % inhibition ApPOL 90' (DRC-2; concentration 40; 90'): 73% | % inhibition apPOL 180' (DRC-2; concentration 40; 180'): 73% | % inhibition Apo pol 5' (DRC-2; concentration 80; 5'): 55% | % inhibition Apol 40' (DRC-2; concentration 80; 40'): 74% | % inhibition ApPOL 90' (DRC-2; concentration 80; 90'): 78% | % inhibition apPOL 180' (DRC-2; concentration 80; 180'): 82% | DNA Pol [1]: 36 | DNA Pol (primary screen value; head prints only 'DNA Pol'; 90 min, 10 µM): 36

OC(C#Cc1ccccc1)c1ccco1 (stereo not shown) [Molecule 95, OC(c1ccco1)C#Cc1ccccc1]
% inhibition Apo pol 10' (DRC-1; 10'; concentration 2.5): 31.3113% | % inhibition Apo pol 10' (DRC-1; 10'; concentration 5): 57.2957% | % inhibition Apo pol 10' (DRC-1; 10'; concentration 10): 77.3144% | % inhibition Apo pol 10' (DRC-1; 10'; concentration 20): 80.9257% | % inhibition Apo pol 10' (DRC-1; 10'; concentration 40): 79.5386% | % inhibition Apo pol 10' (DRC-1; 10'; concentration 80): 69.6909% | % inhibition Apol 90' (DRC-1; 90'; concentration 2.5): 17.4442% | % inhibition Apol 90' (DRC-1; 90'; concentration 5): 42.0165% | % inhibition Apol 90' (DRC-1; 90'; concentration 10): 68.6484% | % inhibition Apol 90' (DRC-1; 90'; concentration 20): 80.4558% | % inhibition Apol 90' (DRC-1; 90'; concentration 40): 83.9315% | % inhibition Apol 90' (DRC-1; 90'; concentration 80): 80.7801% | % inhibition apPOL 180' (DRC-1; 180'; concentration 2.5): 5.809% | % inhibition apPOL 180' (DRC-1; 180'; concentration 5): 25.3082% | % inhibition apPOL 180' (DRC-1; 180'; concentration 10): 55.1933% | % inhibition apPOL 180' (DRC-1; 180'; concentration 20): 73.4768% | % inhibition apPOL 180' (DRC-1; 180'; concentration 40): 83.0192% | % inhibition apPOL 180' (DRC-1; 180'; concentration 80): 83.0007% | % inhibition Apol 40' [2]: 60% | % inhibition Apol 40' (DRC-2, 40', concentration 20 (unit not given)): 62% | % inhibition ApPOL 90' [3]: 62% | % inhibition ApPOL 90' (DRC-2, 90', concentration 20 (unit not given)): 67% | % inhibition ApPOL 90' (DRC-2, 90', concentration 40 (unit not given)): 66% | % inhibition ApPOL 90' (DRC-2, 90', concentration 80 (unit not given)): 60% | % inhibition apPOL 180' [4]: 66% | % inhibition apPOL 180' (DRC-2, 180', concentration 80 (unit not given)): 67% | % inhibition Apo pol 5' (DRC-2; 5'; concentration 2.5): 14% | % inhibition Apo pol 5' (DRC-2; 5'; concentration 5): 32% | % inhibition Apo pol 5' (DRC-2; 5'; concentration 10): 39% | % inhibition Apo pol 5' (DRC-2; 5'; concentration 20): 34% | % inhibition Apo pol 5' (DRC-2; 5'; concentration 40): 22% | % inhibition Apo pol 5' (DRC-2; 5'; concentration 80): -5% | % inhibition Apol 40' (DRC-2; 40'; concentration 2.5): 15% | % inhibition Apol 40' (DRC-2; 40'; concentration 5): 44% | % inhibition Apol 40' (DRC-2; 40'; concentration 10): 60% | % inhibition Apol 40' (DRC-2; 40'; concentration 20): 62% | % inhibition Apol 40' (DRC-2; 40'; concentration 40): 59% | % inhibition Apol 40' (DRC-2; 40'; concentration 80): 48% | % inhibition ApPOL 90' (DRC-2; 90'; concentration 2.5): 12% | % inhibition ApPOL 90' (DRC-2; 90'; concentration 5): 41% | % inhibition ApPOL 90' (DRC-2; 90'; concentration 10): 62% | % inhibition ApPOL 90' (DRC-2; 90'; concentration 20): 67% | % inhibition ApPOL 90' (DRC-2; 90'; concentration 40): 66% | % inhibition ApPOL 90' (DRC-2; 90'; concentration 80): 60% | % inhibition apPOL 180' (DRC-2; 180'; concentration 2.5): 4.25% | % inhibition apPOL 180' (DRC-2; 180'; concentration 5): 30% | % inhibition apPOL 180' (DRC-2; 180'; concentration 10): 58% | % inhibition apPOL 180' (DRC-2; 180'; concentration 20): 66% | % inhibition apPOL 180' (DRC-2; 180'; concentration 40): 71% | % inhibition apPOL 180' (DRC-2; 180'; concentration 80): 67% | DNA Pol [1]: 70 | DNA Pol (primary screen value, head "DNA Pol", unit not given; 90 min, 10 µM): 70

COc1cc(NC(=O)c2ccccc2)c(OC)cc1NC(=O)Cc1cccs1 [KU0032113]
% inhibition Apo pol 10' (DRC-1; 10'; concentration 2.5): 6.129% | % inhibition Apo pol 10' (DRC-1; 10'; concentration 5): 17.2801% | % inhibition Apo pol 10' (DRC-1; 10'; concentration 10): 38.185% | % inhibition Apo pol 10' (DRC-1; 10'; concentration 20): 61.3818% | % inhibition Apo pol 10' (DRC-1; 10'; concentration 40): 79.6269% | % inhibition Apo pol 10' (DRC-1; 10'; concentration 80): 80.874% | % inhibition Apol 90' (DRC-1; 90'; concentration 2.5): 2.9% | % inhibition Apol 90' (DRC-1; 90'; concentration 5): 9.442% | % inhibition Apol 90' (DRC-1; 90'; concentration 10): 29.583% | % inhibition Apol 90' (DRC-1; 90'; concentration 20): 53.4832% | % inhibition Apol 90' (DRC-1; 90'; concentration 40): 79.1036% | % inhibition Apol 90' (DRC-1; 90'; concentration 80): 83.2869% | % inhibition apPOL 180' (DRC-1; 180'; concentration 2.5): 0.5437% | % inhibition apPOL 180' (DRC-1; 180'; concentration 5): 4.503% | % inhibition apPOL 180' (DRC-1; 180'; concentration 10): 19.4766% | % inhibition apPOL 180' (DRC-1; 180'; concentration 20): 39.9313% | % inhibition apPOL 180' (DRC-1; 180'; concentration 40): 73.4883% | % inhibition apPOL 180' (DRC-1; 180'; concentration 80): 81.431% | % inhibition Apo pol 5' (DRC-2, 5', concentration 2.5 (unit not given)): 25% | % inhibition Apo pol 5' (DRC-2, 5', concentration 10 (unit not given)): 38% | % inhibition Apo pol 5' (DRC-2, 5', concentration 20 (unit not given)): 38% | % inhibition Apo pol 5' (DRC-2, 5', concentration 40 (unit not given)): 34% | % inhibition Apol 40' (DRC-2, 40', concentration 2.5 (unit not given)): 34% | % inhibition Apol 40' [2]: 54% | % inhibition Apol 40' (DRC-2, 40', concentration 40 (unit not given)): 61% | % inhibition ApPOL 90' (DRC-2, 90', concentration 5 (unit not given)): 25% | % inhibition ApPOL 90' [3]: 54% | % inhibition apPOL 180' [4]: 61% | % inhibition Apo pol 5' (DRC-2; 5'; concentration 2.5): 25% | % inhibition Apo pol 5' (DRC-2; 5'; concentration 5): 21% | % inhibition Apo pol 5' (DRC-2; 5'; concentration 10): 38% | % inhibition Apo pol 5' (DRC-2; 5'; concentration 20): 38% | % inhibition Apo pol 5' (DRC-2; 5'; concentration 40): 34% | % inhibition Apo pol 5' (DRC-2; 5'; concentration 80): -20% | % inhibition Apol 40' (DRC-2; 40'; concentration 2.5): 34% | % inhibition Apol 40' (DRC-2; 40'; concentration 5): 28% | % inhibition Apol 40' (DRC-2; 40'; concentration 10): 54% | % inhibition Apol 40' (DRC-2; 40'; concentration 20): 62% | % inhibition Apol 40' (DRC-2; 40'; concentration 40): 61% | % inhibition Apol 40' (DRC-2; 40'; concentration 80): 35% | % inhibition ApPOL 90' (DRC-2; 90'; concentration 2.5): 31% | % inhibition ApPOL 90' (DRC-2; 90'; concentration 5): 25% | % inhibition ApPOL 90' (DRC-2; 90'; concentration 10): 54% | % inhibition ApPOL 90' (DRC-2; 90'; concentration 20): 64% | % inhibition ApPOL 90' (DRC-2; 90'; concentration 40): 66% | % inhibition ApPOL 90' (DRC-2; 90'; concentration 80): 47% | % inhibition apPOL 180' (DRC-2; 180'; concentration 2.5): 22% | % inhibition apPOL 180' (DRC-2; 180'; concentration 5): 13% | % inhibition apPOL 180' (DRC-2; 180'; concentration 10): 44% | % inhibition apPOL 180' (DRC-2; 180'; concentration 20): 61% | % inhibition apPOL 180' (DRC-2; 180'; concentration 40): 67% | % inhibition apPOL 180' (DRC-2; 180'; concentration 80): 59% | DNA Pol (primary screen value of the 186 hits; unit not given): 42 | DNA Pol (primary screen value, head "DNA Pol", unit not given): 42
